Our source for the TGI and GI50 values is PubChem BioAssay (NCI).

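Growth conditions: 96-well plates. Treatment: test compound, 48 hours, 5 concentrations. Analysis: linear interpolation between bracketing concentrations; unreached endpoints set to highest concentration. GI50 = concentration required for 50% inhibition of growth. The concentration for full growth arrest is given as TGI.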

Among the test systems are OVCAR-4 ovarian; HCT-15 colon; A549 NSCLC; KM12 colon; SF-295 CNS; EKVX NSCLC; HOP-62 NSCLC; SF-268 CNS; SR leukemia; COLO 205 colon.
What all share (assay): NCI tumour cell line growth inhibition, 48 h

`CC1=NN(c2ccccc2)C(=O)C1C(=O)C(=O)Nc1ccc(C)cc1C` (centres undefined): the TGI in the test on OVCAR-4 ovarian, with HCT-15 colon, in the test on A549 NSCLC, with KM12 colon, in the test on SF-295 CNS and in the test with EKVX NSCLC was over 100 µM each time. Further, the TGI in the test on HOP-62 NSCLC, with SF-268 CNS, with SR leukemia and in the test on COLO 205 colon was over 100 µM each time.
Take `O=C(O)C#Cc1ccc([N+](=O)[O-])cc1`: the TGI in the test with OVCAR-4 ovarian, with HCT-15 colon, in the test on A549 NSCLC, in the test with KM12 colon, in the test on SF-295 CNS and in the test with EKVX NSCLC was over 100 µM each time. Further, the TGI in the test with HOP-62 NSCLC, with SF-268 CNS, in the test on SR leukemia and in the test with COLO 205 colon was over 100 µM each time.
Take `COc1ccc2c(c1)N(CCC1CCCCN1C)c1ccccc1S2` (centres undefined): the TGI is 24 µM with OVCAR-4 ovarian; 27.4 µM with HCT-15 colon; 27.8 µM in the test with A549 NSCLC; 23.6 µM in the test on KM12 colon; 31.2 µM in the test on SF-295 CNS; 36.5 µM with EKVX NSCLC. Besides, the TGI is 31.2 µM with HOP-62 NSCLC, 26.6 µM in the test on SF-268 CNS, 20.9 µM in the test on SR leukemia and 30.9 µM with COLO 205 colon.
Consider `Nc1nn(C(=O)Nc2ccc(Cc3ccccc3)cc2)c2ccccc12`, for which the GI50 in the test on OVCAR-4 ovarian was 10.7 µM; in the test on HCT-15 colon, 1.08 µM; in the test with A549 NSCLC, 12.9 µM; with KM12 colon, 2.94 µM; in the test on SF-295 CNS, 0.53 µM; in the test with EKVX NSCLC it was 11.2 µM. Also, the GI50 in the test with HOP-62 NSCLC is 13.7 µM; with SF-268 CNS, 4.66 µM; with SR leukemia, 0.0153 µM; in the test on COLO 205 colon, 13.4 µM. Also, the TGI with OVCAR-4 ovarian is 40.4 µM; in the test on HCT-15 colon it was over 100 µM; in the test on A549 NSCLC, 48.6 µM; in the test with KM12 colon it was over 100 µM; with SF-295 CNS, over 100 µM; in the test on EKVX NSCLC, 92 µM. In addition, the TGI came to 46.5 µM in the test with HOP-62 NSCLC, 32.3 µM with SF-268 CNS, 0.0822 µM with SR leukemia and 37.7 µM in the test on COLO 205 colon.
For `CN(C)CCOc1cccc(NC2=C(Cl)C(=O)C(Nc3cccc(OCCN(C)C)c3)=C(Cl)C2=O)c1`, the GI50 in the test with OVCAR-4 ovarian was 0.17 µM; in the test with HCT-15 colon it was 0.35 µM; with A549 NSCLC, 2.19 µM; with KM12 colon, 1.33 µM; with SF-295 CNS, 2.36 µM; in the test on EKVX NSCLC, 0.794 µM. In addition, the GI50 with HOP-62 NSCLC is 2.1 µM; in the test with SF-268 CNS it was 1.7 µM; in the test on SR leukemia, 0.218 µM; with COLO 205 colon, 0.258 µM. The TGI in the test on OVCAR-4 ovarian came to 0.329 µM; in the test on HCT-15 colon, 1.4 µM; in the test with A549 NSCLC, 3.98 µM; in the test on KM12 colon, 2.92 µM; with SF-295 CNS it was 5.92 µM; in the test on EKVX NSCLC it was 2.13 µM. Besides, the TGI in the test on HOP-62 NSCLC was found to be 4.22 µM; in the test on SF-268 CNS, 3.48 µM; with SR leukemia it was 0.783 µM; with COLO 205 colon, 0.684 µM.
Consider `O=C(CCc1cc(-c2ccco2)n(-c2ccc([N+](=O)[O-])cc2[N+](=O)[O-])n1)Nc1ccccc1`, for which the TGI in the test on OVCAR-4 ovarian, in the test with HCT-15 colon, with A549 NSCLC, in the test with KM12 colon, in the test on SF-295 CNS and in the test on EKVX NSCLC was over 100 µM in each case. For the same compound, the TGI in the test with HOP-62 NSCLC, in the test with SF-268 CNS, in the test with SR leukemia and in the test with COLO 205 colon was over 100 µM throughout.
Regarding `FC(F)(F)c1ccccc1C=NC12CC3CC(CC(C3)C1)C2`, the TGI in the test with OVCAR-4 ovarian, with HCT-15 colon, with A549 NSCLC, with KM12 colon, in the test on SF-295 CNS and in the test on EKVX NSCLC was over 100 µM each time. Further, the TGI with HOP-62 NSCLC, in the test on SF-268 CNS, in the test on SR leukemia and with COLO 205 colon was over 100 µM throughout.
`COC1(C)Cc2c(c(C)c(O)c3c2C(=O)C=C(Cl)C3=O)O1` (centres undefined): the TGI in the test on OVCAR-4 ovarian is over 86.8 µM; with HCT-15 colon it was over 71.9 µM; in the test with A549 NSCLC it was over 100 µM; in the test on KM12 colon, over 100 µM; in the test with SF-295 CNS, over 100 µM; in the test with EKVX NSCLC it was over 100 µM. The TGI is over 100 µM in the test with HOP-62 NSCLC, over 100 µM in the test on SF-268 CNS, 23.5 µM with SR leukemia and 38.1 µM with COLO 205 colon.
For `CCCNNC(=O)c1ccc(CNC(=O)/C=C/c2ccccc2)cc1`, the GI50 in the test on OVCAR-4 ovarian was 0.375 µM; with HCT-15 colon it was 0.305 µM; in the test on A549 NSCLC it was 0.31 µM; in the test on KM12 colon, 0.232 µM; in the test on SF-295 CNS, 0.164 µM; in the test on EKVX NSCLC it was 0.311 µM. The GI50 with HOP-62 NSCLC is 0.11 µM; in the test with SF-268 CNS, 0.316 µM; with SR leukemia, 0.18 µM; in the test on COLO 205 colon it was 0.0909 µM. In addition, the TGI in the test on OVCAR-4 ovarian was over 100 µM; with HCT-15 colon, over 39 µM; with A549 NSCLC, over 100 µM; in the test on KM12 colon it was 5.05 µM; in the test with SF-295 CNS, 0.596 µM; in the test with EKVX NSCLC, over 100 µM. For the same compound, the TGI in the test on HOP-62 NSCLC is over 100 µM; in the test with SR leukemia it was over 100 µM; in the test with COLO 205 colon, 0.292 µM.
Regarding `O=C1/C(=c2\c3ccccc3n3c(=O)c4ccccc4nc23)Nc2ccccc21`, the TGI with OVCAR-4 ovarian, in the test on HCT-15 colon, in the test with A549 NSCLC, in the test on KM12 colon, in the test with SF-295 CNS and in the test with EKVX NSCLC was over 100 µM each time. Also, the TGI in the test on HOP-62 NSCLC, with SF-268 CNS, in the test on SR leukemia and in the test with COLO 205 colon was over 100 µM in each case.
